Values of other authors, collected in patent publication US20070027110A1, “Double salts of (-)-hydroxycitric acid with an amine and a group II a metal and a process for preparing the same” (priority 2004, published 2007).

Conditions: free acid form, forming lactone; liquid form unstable during storage

stability: unstable
Structure (SMILES): O=C(O)CC(O)(C(=O)O)C(O)C(=O)O (single isomer, unassigned; (-)) [(−)-hydroxycitric acid]
